Data: patent US8268961B2, “Antibacterial peptides and analogues thereof” (Universita Degli Studi di Siena, priority 2004, dated 2012)
Like-named read-outs stand apart in the source and are kept apart here. Positions of bridges follow the written chain, without caps; N, C: chain ends. Chains are numbered I, II in the order given. No end group written: not given here.

What was measured:
[1] = system: E. coli strain TG1; experiment: Test of antibacterial activity (colony growth inhibition) on E. coli strain TG1; assay type: cell-based
Method: The antimicrobic activity of the peptides in linear form (L1, L4, L5, L6) and in MAP form (M1, M4, M5, M6) was assayed on the TG1 strain of E. coli. The peptides were incubated at various concentrations (2-1-0.5-0.25-0.12 mg/ml) with cells of E. coli (OD600=0.2) for about 1 hour at 37° C. Subsequently, the cells were plated on agar at dilution such to allow counting of individual colonies. The antimicrobic activity of the synthesised peptide L 1 and M1 is shown FIG. 1 and is compared to a non correlated MAP peptide (MNC) used as negative control.
In one example, the tetrabranched MAP peptides with the amino acid sequence: QAKIRVRLSA [SEQ ID NO: 2], KIRVRLSA [SEQ ID NO: 3], QKKIRVRLSA [SEQ ID NO: 4] are used individually in a bacterial colony growth inhibition test. The test is conducted by incubating different concentrations of MAP peptides with E. coli (strain TG1) and plating bacterial cells on agar at a dilution such to allow for individual colonies counting. The following day, the number of colonies grown after treatment with the three MAP peptides is compared.
Antimicrobic tests were conducted incubating for 75 min at 37° C., 25 μL of E. coli at the OD600 of 0.2 with 25 μl of MAP peptide dissolved in PBS at the various concentrations. The different incubations were further diluted 1:1000 in 2×TY medium and 100 μl were plated on solid 2×TY medium. The plates were left overnight at 30° C. and the individual grown colonies were counted and compared with a control, not treated with MAP peptide.

[2] = system: Escherichia coli W99FI0077; assay type: cell-based; conditions: W99FI0077
Excerpt: (§1) MIC is defined as the lowest concentration, in an antibiotic dilution range, that inhibits visible bacterial growth. The importance of MIC sensitivity test is based on the principle that in vitro sensitivity provides a predictive indication of the in vivo efficacy of the antibiotic therapy. Values are expressed as molar concentration and compared to MIC values obtained with commercially available antibiotics such as amikacin, ceftriaxone and levofloxacin (Table 3).
(§2) Reference strains (Escherichia coli ATCC 25922, Pseudomonas aeruginosa ATCC 27853, Staphylococus aureus ATCC 25923 and Chryseobacterium meningosepticum CCUG 4310) and several recent clinical isolates (including multidrug-resistant ones) of various species (Table 2) were used for conventional susceptibility testing experiments. Minimum Inhibitory Concentration (MIC) was determined by a standard microdilution assay as recommended by the National Commitee for Clinical Laboratory Standards (NCCLS) using cation-supplemented Mueller-Hinton (MH) broth (Oxoid Ltd. Basingstoke, UK) and a bacterial inoculum of 5×10^4 CFU per well, in a final volume of 100 μl. Results were recorded by visual inspection after 24 h of incubation at 37° C.

[3] = system: Pseudomonas aeruginosa ATCC27853; assay type: cell-based; conditions: ATCC27853
Excerpt: as §1, §2

[4] = system: Pseudomonas aeruginosa 891; assay type: cell-based; conditions: 891
Excerpt: as §1, §2

[5] = system: Pseudomonas aeruginosa 885149; assay type: cell-based; conditions: 885149
Excerpt: as §1, §2

[6] = system: Klebsiella pneumoniae W99FI0057; assay type: cell-based; conditions: W99FI0057
Excerpt: as §1, §2

[7] = system: Staphylococcus aureus ATCC 25923; assay type: cell-based
Excerpt: as §1, §2

[8] = system: Staphylococus aureus MIU-68A; assay type: cell-based, Staphylococcus aureus; conditions: Staphylococus aureus MIU-68A, meticillin-susceptible
Excerpt: as §1, §2

[9] = system: P. aeruginosa ATCC 27853; experiment: Minimal bactericidal concentration (MBC); assay type: cell-based
Method: as §2
(§3) The MBC was determined as recommended by the National Committee for Clinical Laboratory Standards (NCCLS) on strains of E. coli ATCC 25922 and P. aeruginosa ATCC 27853.

[10] = system: E. coli ATCC 25922; experiment: Minimal bactericidal concentration (MBC); assay type: cell-based
Method: as §2, §3

[11] = Stability to plasmatic protease (HPLC); assay type: in vitro ADME, human
Method: Since the use of peptides as therapeutic agents is severely limited by their in vivo half-life, the stability to human serum protease of the linear peptide L1 and of the MAP peptides M1, M4, M5 and M6 was evaluated. The peptides were incubated at the concentration of 10 mM with plasma and with human serum for 2 and 24 hours; the samples were subsequently analysed in HPLC on column C18 (see materials and methods) to evaluate the presence of linear and MAP peptide not digested by the protease.
The various peptides in MAP form and the linear peptide (L1) were dissolved in H2O at the concentration of 10 mM and incubated with 10 μl of plasma and human serum for 2 and 24 hours at 37° C. To each sample were added 150 μl of methanol to block the proteolytic reaction; each sample was then centrifuged at 13,000 rpm for 2 min and to the supernatant were added 0.75 ml of 0.1% trifluoroacetic acid. The samples were analysed in reverse phase HPLC on a Vydac C18 semi-preparative column using a 30 min gradient of buffer B from 20% to 95% (buffer A: 0.1% trifluoroacetic acid/water; buffer B: 0.1% trifluoroacetic acid/methanol), to evaluate the presence of linear and MAP peptide after the proteolytic treatment.

[12] = system: Pichia pastoris yeast strain X33; experiment: Effect on Pichia pastoris yeast colonies; assay type: cell-based
Method: To a volume of 50 μl of culture of Pichia pastoris grown 24 hour at 30° C. in YPD (Yeast Extract/Peptone/Dextrose) medium, 50 μl of MAP peptides (2 mg/ml) were added and left in incubation 150 min at 37° C. Subsequently, 50 μl of each incubation were plated on YPD solid medium and it was allowed to grow for 48 hours at 30° C. The number of colonies grown was compared with a control, where the yeast was not treated with the MAP.

[13] = system: murine macrophage cells J774 A.1; experiment: Cytotoxicity test by MTT; assay type: cell-based, mouse
Method: The cytotoxicity of antibacterial MAP peptides was evaluated on different eukaryotic cell lines by a colorimetric assay (MTT). This assay measures the cells' ability to convert a soluble tetrazolium salt into an insoluble precipitate: formazan. The cytotoxicity of M1 was evaluated on murine macrophagic cells (J774 A.1), murine myeloma cells (SPO) and Chinese hamster ovary epithelium cells (CHO K1). As shown FIG. 4, even at high concentrations (1 mg/ml) M1 cytotoxicity on CHO K1 cells and on SPO cells is low (percent survival is 80-90%).
For cytotoxicity tests, different cell lines were used: murine myeloma cells SPO, hamster ovary epithelium cells CHO K 1, murine macrophage cells J774 A.1 and human keratinocytes HaCaT. The cells were plated in medium in RPMI 1640 (SPO and CHO K 1) and DMEM (J774 A.1 and HaCaT) with antibiotics and bovine foetal serum at 10%, in 96-well plates at the concentration of 6×10^4 (SPO, CHO K1 and J774 A.1) and 3×10^4 (HaCaT). Peptides, previously filtered with a 0.2 μm filter disk (Whatman), were added at various concentrations to the different cell lines and left in incubation over night at 37° C. Cell viability was determined adding the MTT tetrazolium salt at the concentration of 0.5 mg/ml and incubating for 90 min. The cells were solubilised with a solution at pH 4.5 containing SDS 10% and dimethylformamide 45% and read at the dual wavelength of 595/650 nm with a plate reader.

## I: QAKIRVRLSAKKA-OH / II: QAKIRVRLSAK / III: QAKIRVRLSA / IV: QAKIRVRLSA (amide I:11-IV:C, I:12-II:C, II:11-III:C) [M4]
[1]; E. coli TG1, MAP form
  Concentration down to which TG1 E. coli colony growth is prevented: less effective
[1]; E. coli TG1, colony counting vs control without peptide
  Antibacterial activity on E. coli TG1 colony growth: good antibacterial activity
[2]
  MIC (Molarity): 3.2 µM
[3]
  MIC (Molarity): 6.4 µM
[4]
  MIC (Molarity): 13 µM
[5]
  MIC (Molarity): 13 µM
[6]
  MIC (Molarity): 13 µM
[7]; ATCC 25923
  MIC (Molarity): 1.3e-05 M
[7]; Staphylococcus aureus ATCC 25923, reference strain, listed as M32 = M4
  MIC (Molarity): >1.2e-05 M
[7]; Staphylococcus aureus ATCC 25923, reference strain, listed as QAKIRVRLSA
  MIC (Molarity): ~10^−5 M
[8]
  MIC (Molarity): >26 µM
[9]
  MBC (minimal concentration able to kill 99.9% of the inoculum) compared with MIC: equal to the calculated values of MIC
[9]; listed as QAKIRVRLSA
  MBC (minimal concentration able to kill 99.9% of the inoculum) compared with MIC: equal to the corresponding MIC values
[10]
  MBC (minimal concentration able to kill 99.9% of the inoculum) compared with MIC: equal to the calculated values of MIC
[10]; listed as QAKIRVRLSA
  MBC (minimal concentration able to kill 99.9% of the inoculum) compared with MIC: equal to the corresponding MIC values
[11]
  Resistance to plasmatic protease: Plasma 2 h: +
  Resistance to plasmatic protease: Plasma 24 h: +
[12]
  Number of yeast colonies vs negative control: did not differ from the negative control
[13]
  Concentration at and over which a drop in cell viability was evident (MTT): ≥ 250 µg/mL
  Vitality of J774 A.1 cells as the concentration of MAP peptides increases (MTT): decreases
